Values after ≈ are worked out from the molar mass of the structure shown. Like-named read-outs stand apart in the source and are kept apart here.
Tests used:
Type in all cases: cell-based
M. morganii 126/3048 = test: MIC determination, broth microdilution (CLSI); conditions: for MIC: Morganella morganii, 126/3048, strain 5
P. aeruginosa PAO1 = test: MIC determination, broth microdilution (CLSI); conditions: for MIC: Pseudomonas aeruginosa, PAO1, strain 6
B. fragilis 6688 = test: MIC determination, broth microdilution (CLSI); conditions: Bacteroides fragilis, 6688, strain 15; broth microdilution; read-out: MIC strain 15 (B. fragilis 6688)
E. coli ATCC25922 = test: MIC determination, broth microdilution (CLSI); conditions: for MIC: Escherichia coli, ATCC25922, strain 1
S. pneumoniae 113 = test: MIC determination, broth microdilution (CLSI); conditions: Streptococcus pneumoniae, 113, strain 13; broth microdilution; read-out: MIC strain 13 (S. pneumoniae 113)
K. pneumoniae 60 = test: MIC determination, broth microdilution (CLSI); conditions: for MIC: Klebsiella pneumoniae, 60, strain 2
E. coli J62 = test: MIC determination, broth microdilution (CLSI); conditions: broth microdilution; for MIC: Escherichia coli, J62, strain 17, read-out: MIC strain 17 (E. coli J62)
S. maltophilia ICB7569 = test: MIC determination, broth microdilution (CLSI); conditions: for MIC: Stenotrophomonas maltophilia, ICB7569, strain 10
[1] = system: P. aeruginosa 2297 (AmpC wt); test: MIC determination, broth microdilution (CLSI); conditions: for MIC: Pseudomonas aeruginosa, strain 7
E. coli J62-TEM-3 = test: MIC determination, broth microdilution (CLSI); conditions: broth microdilution; for MIC: Escherichia coli, J62TEM3, read-out: MIC strain 18 (E. coli J62-TEM-3), strain 18
C. freundii K21/3034 = test: MIC determination, broth microdilution (CLSI); conditions: for MIC: Citrobacter freundii, K21/3034, strain 4
S. aureus 133 = test: MIC determination, broth microdilution (CLSI)
Bacteria = test: MIC determination in combination with β-lactamase inhibitors (constant 4 μg/mL)
C. perfringens DSM756 = test: microbe, parasite or virus in culture; conditions: Clostridium perfringens, DSM756, read-out: MIC strain 16 (C. perfringens DSM756), strain 16; broth microdilution
[2] = system: P. aeruginosa 2297-con (AmpC derepressed); test: MIC determination, broth microdilution (CLSI); conditions: for MIC: Pseudomonas aeruginosa, read-out: strain 8 MIC, strain 8
A. baumannii ATCC15308 = test: MIC determination, broth microdilution (CLSI); conditions: for MIC: Acinetobacter baumannii, ATCC15308, strain 9
E. cloacae 34654 = test: MIC determination, broth microdilution (CLSI); conditions: for MIC: Enterobacter cloacae, 34654, strain 3
H. influenzae ATCC 49247 = test: MIC determination, broth microdilution (CLSI); conditions: Haemophilus influenzae, ATCC49247, strain 12; broth microdilution; read-out: MIC strain 12 (H. influenzae ATCC 49247)
[3] = Staphylococcus aureus, 133, strain 11, read-out: strain 11 MIC
[4] = Staphylococcus aureus, 133, strain 14, broth microdilution, read-out: MIC strain 14 (S. aureus 133)

Structure (SMILES) | MIC (B. fragilis 6688) | MIC (S. pneumoniae 113) | MIC (S. aureus 133; [3]) | MIC strain 19 (E. coli J62-TEM-3 + 4 μg/mL clavulanic acid) (Bacteria) | MIC strain 20 (E. coli J62-TEM-3 + 4 μg/mL sulbactam) (Bacteria) | MIC strain 21 (E. coli J62-TEM-3 + 4 μg/mL tazobactam) (Bacteria) | MIC (C. perfringens DSM756) | MIC (H. influenzae ATCC 49247) | MIC (M. morganii 126/3048) | MIC (P. aeruginosa PAO1) | MIC (E. coli ATCC25922) | MIC (K. pneumoniae 60) | MIC (E. coli J62) | MIC (S. maltophilia ICB7569) | MIC [1] | MIC (E. coli J62-TEM-3) | MIC (C. freundii K21/3034) | MIC [2] | MIC (A. baumannii ATCC15308) | MIC (E. cloacae 34654) | also measured
CC1(C)[C@H](NC(=O)/C(=N\OC(CO)COc2ccc(C(=N)N)cc2)c2csc(N)n2)C(=O)N1OS(=O)(=O)O (mixture of isomers) [Example 45B, (2Z)-2-(2-Amino-1,3-thiazol-4-yl)-2-({[(2R and 2S)-1-(4-carbamimidoylphenoxy)-3-hydroxypropan-2-yl]oxy}imino)-N-[(3S)-2,2-dimethyl-4-oxo-1-(sulfooxy)azetidin-3-yl]ethanamide] | 4 µg/mL | 0.125 µg/mL | ≤ 0.063 µg/mL | 2 mg/L | 4 mg/L | 4 mg/L | 2 µg/mL | 0.5 µg/mL |  |  |  |  |  |  |  |  |  |  |  |  | strain 5 MIC (M. morganii 126/3048; strain 5): 4 mg/L; strain 6 MIC (P. aeruginosa PAO1): 16 mg/L; strain 1 MIC (E. coli ATCC25922): 2 mg/L; strain 2 MIC (K. pneumoniae 60): 2 mg/L; MIC strain 17 (E. coli J62) (E. coli J62): 4 mg/L; strain 10 MIC (S. maltophilia ICB7569): 32 mg/L; strain 7 MIC [1]: 32 mg/L; MIC strain 18 (E. coli J62-TEM-3) (E. coli J62-TEM-3; strain 18): 16 mg/L; strain 4 MIC (C. freundii K21/3034): 1 mg/L; MIC strain 14 (S. aureus 133) (S. aureus 133; strain 14, broth microdilution): 16 mg/L; strain 8 MIC [2]: 32 mg/L; strain 9 MIC (A. baumannii ATCC15308): 4 mg/L; strain 3 MIC (E. cloacae 34654): 4 mg/L
CC1(C)[C@H](NC(=O)/C(=N\OC(COc2ccc(C(=N)NC3CCCNC3)cc2)C(=O)O)c2csc(N)n2)C(=O)N1OS(=O)(=O)O (stereo in doubt) [Example 89, (2R)-2-({[(1Z)-1-(2-Amino-1,3-thiazol-4-yl)-2-{[(3S)-2,2-dimethyl-4-oxo-1-(sulfooxy)-azetidin-3-yl]amino}-2-oxoethylidene]amino}oxy)-3-(4-{N-[(3R)-piperidin-3-yl]carbamimidoyl}phenoxy)propanoic acid] | 8 µg/mL (≈ 12 µM) | 0.5 µg/mL (≈ 0.748 µM) |  | ≦0.063 mg/L | ≦0.063 mg/L | 0.125 mg/L | 1 µg/mL (≈ 1.5 µM) | ≤ 0.063 µg/mL | ≤ 0.063 µg/mL | 1 µg/mL (≈ 1.5 µM) | 0.125 µg/mL (≈ 0.187 µM) | 0.25 µg/mL (≈ 0.374 µM) | 0.125 µg/mL (≈ 0.187 µM) | 4 µg/mL (≈ 5.98 µM) | 1 µg/mL (≈ 1.5 µM) | 4 µg/mL (≈ 5.98 µM) | 0.125 µg/mL (≈ 0.187 µM) | 1 µg/mL (≈ 1.5 µM) | 1 µg/mL (≈ 1.5 µM) | 0.125 µg/mL (≈ 0.187 µM) | MIC (S. aureus 133; [4]): 32 µg/mL (≈ 47.9 µM)
CC1(C)[C@H](NC(=O)/C(=N\O[C@@H](COc2ccc(C(=N)NC3CC3N)cc2)C(=O)O)c2csc(N)n2)C(=O)N1OS(=O)(=O)O (single isomer, unassigned) [Example 100A] | 8 µg/mL (≈ 12.5 µM) | 0.5 µg/mL (≈ 0.78 µM) | ≤ 0.063 µg/mL | 0.125 mg/L | 0.125 mg/L | 0.25 mg/L | 2 µg/mL (≈ 3.12 µM) | ≤ 0.063 µg/mL | ≤ 0.063 µg/mL |  |  |  |  |  |  | 32 µg/mL (≈ 49.9 µM) |  |  |  |  | strain 6 MIC (P. aeruginosa PAO1): 2 mg/L; strain 1 MIC (E. coli ATCC25922): 0.125 mg/L; strain 2 MIC (K. pneumoniae 60): 0.25 mg/L; MIC strain 17 (E. coli J62) (E. coli J62): 0.25 mg/L (≈ 0.39 µM); strain 10 MIC (S. maltophilia ICB7569): 8 mg/L; strain 7 MIC [1]: 4 mg/L; strain 4 MIC (C. freundii K21/3034): 0.125 mg/L; strain 8 MIC [2]: 4 mg/L; strain 9 MIC (A. baumannii ATCC15308): 8 mg/L; strain 3 MIC (E. cloacae 34654): 0.125 mg/L
CC1(C)[C@H](NC(=O)/C(=N\O[C@@H](COc2ccc(C(=N)NC3CNCC3N)cc2)C(=O)O)c2csc(N)n2)C(=O)N1OS(=O)(=O)O (stereo partly drawn) [Example 106, (2S)-3-{4-[N-(4-Aminopyrrolidin-3-yl)carbamimidoyl]phenoxy}-2-({[(1Z)-1-(2-amino-1,3-thiazol-4-yl)-2-{[(3S)-2,2-dimethyl-4-oxo-1-(sulfooxy)azetidin-3-yl]amino}-2-oxoethylidene]amino}oxy)propanoic acid] | 8 µg/mL (≈ 11.9 µM) | 0.5 µg/mL (≈ 0.747 µM) | ≤ 0.063 µg/mL | 0.125 mg/L | ≦0.063 mg/L | 0.125 mg/L | 1 µg/mL (≈ 1.49 µM) | ≤ 0.063 µg/mL | ≤ 0.063 µg/mL | 1 µg/mL (≈ 1.49 µM) | 0.125 µg/mL (≈ 0.187 µM) | 0.125 µg/mL (≈ 0.187 µM) | 0.125 µg/mL (≈ 0.187 µM) | 4 µg/mL (≈ 5.97 µM) | 2 µg/mL (≈ 2.99 µM) | 8 µg/mL (≈ 11.9 µM) | 0.125 µg/mL (≈ 0.187 µM) | 1 µg/mL (≈ 1.49 µM) | 2 µg/mL (≈ 2.99 µM) | 0.125 µg/mL (≈ 0.187 µM) | 
Cc1sc(C(=N)N)nc1OCCO/N=C(\C(=O)N[C@@H]1C(=O)N(OS(=O)(=O)O)C1(C)C)c1csc(N)n1 [Example 74, (2Z)-2-(2-Amino-1,3-thiazol-4-yl)-2-({2-[(2-carbamimidoyl-5-methyl-1,3-thiazol-4-yl)oxy]ethoxy}imino)-N-[(3S)-2,2-dimethyl-4-oxo-1-(sulfooxy)azetidin-3-yl]ethanamide] | 2 µg/mL (≈ 3.55 µM) | ≤ 0.063 µg/mL | ≤ 0.063 µg/mL | 1 mg/L | 1 mg/L | 2 mg/L | 2 µg/mL (≈ 3.55 µM) | 0.25 µg/mL (≈ 0.444 µM) | 1 µg/mL (≈ 1.78 µM) | 16 µg/mL (≈ 28.4 µM) | 1 µg/mL (≈ 1.78 µM) | 2 µg/mL (≈ 3.55 µM) | 4 µg/mL (≈ 7.11 µM) | 16 µg/mL (≈ 28.4 µM) | 32 µg/mL (≈ 56.9 µM) | 16 µg/mL (≈ 28.4 µM) | 1 µg/mL (≈ 1.78 µM) | 32 µg/mL (≈ 56.9 µM) | 2 µg/mL (≈ 3.55 µM) | 4 µg/mL (≈ 7.11 µM) | MIC (S. aureus 133; [4]): 32 µg/mL (≈ 56.9 µM)
CC1(C)[C@H](NC(=O)/C(=N\O[C@@H](COc2ccc(C(=N)NC3CCCNC3)cc2)C(=O)O)c2csc(N)n2)C(=O)N1OS(=O)(=O)O (stereo partly drawn) [Example 97, (2S)-2-({[(1Z)-1-(2-Amino-1,3-thiazol-4-yl)-2-{[(3S)-2,2-dimethyl-4-oxo-1-(sulfooxy)azetidin-3-yl]amino}-2-oxoethylidene]amino}oxy)-3-{4-[N-(piperidin-3-yl)carbamimidoyl]phenoxy}propanoic acid] | 4 µg/mL (≈ 5.98 µM) | 0.5 µg/mL (≈ 0.748 µM) | ≤ 0.063 µg/mL | ≦0.063 mg/L | ≦0.063 mg/L | ≦0.063 mg/L | 0.5 µg/mL (≈ 0.748 µM) | ≤ 0.063 µg/mL | ≤ 0.063 µg/mL | 1 µg/mL (≈ 1.5 µM) | ≤ 0.063 µg/mL | 0.125 µg/mL (≈ 0.187 µM) | 0.125 µg/mL (≈ 0.187 µM) | 4 µg/mL (≈ 5.98 µM) | 1 µg/mL (≈ 1.5 µM) | 4 µg/mL (≈ 5.98 µM) | ≤ 0.063 µg/mL | 1 µg/mL (≈ 1.5 µM) | 1 µg/mL (≈ 1.5 µM) | 0.125 µg/mL (≈ 0.187 µM) | MIC (S. aureus 133; [4]): 32 µg/mL (≈ 47.9 µM)
CC1(C)[C@H](NC(=O)/C(=N\OCCOc2ccc(C(=N)NCCN)nc2)c2csc(N)n2)C(=O)N1OS(=O)(=O)O [Example 82, (2Z)-2-{[2-({6-[N-(2-Aminoethyl)carbamimidoyl]pyridin-3-yl}oxy)ethoxy]imino}-2-(2-amino-1,3-thiazol-4-yl)-N-[(3S)-2,2-dimethyl-4-oxo-1-(sulfooxy)azetidin-3-yl]ethanamide] | 4 µg/mL (≈ 6.83 µM) | ≤ 0.063 µg/mL | ≤ 0.063 µg/mL | 0.25 mg/L | 0.25 mg/L | 0.5 mg/L | 4 µg/mL (≈ 6.83 µM) | ≤ 0.063 µg/mL | 0.5 µg/mL (≈ 0.854 µM) | 8 µg/mL (≈ 13.7 µM) | 0.25 µg/mL (≈ 0.427 µM) | 0.125 µg/mL (≈ 0.213 µM) | 0.25 µg/mL (≈ 0.427 µM) | 32 µg/mL (≈ 54.6 µM) | 16 µg/mL (≈ 27.3 µM) | 8 µg/mL (≈ 13.7 µM) | 0.25 µg/mL (≈ 0.427 µM) | 8 µg/mL (≈ 13.7 µM) | 4 µg/mL (≈ 6.83 µM) | 0.5 µg/mL (≈ 0.854 µM) | MIC (S. aureus 133; [4]): 8 µg/mL (≈ 13.7 µM)
